# According to patent publication US9302991B2, “Arylamide derivatives as TTX-S blockers” (RaQualia Pharma Inc., priority 2010, dated 2016):
# Molecular target: T1, human Nav1.7 channels (Homo sapiens, UniProt Q15858)
# T1 construct: expressed in transfected cells; host or cells: CHO
# Test: FRET assay, human Nav1.7 (EFS on FDSS)
# Format: cell-based
# Conditions: CHO cells expressing human Nav1.7, read-out: IC50 against Nav1.7
# Method in brief: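 CHO cells stably expressing the channel, loaded with CC2-DMPE (10 µM) then DiSBAC2(3) (15 µM) plus VABSC-1, in HEPES-buffered saline pH 7.4 at room temperature. Electrical field stimulation on FDSS; FRET ratio at 440 nm fitted for IC50.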
# T1 sequence (Q15858 whole entry): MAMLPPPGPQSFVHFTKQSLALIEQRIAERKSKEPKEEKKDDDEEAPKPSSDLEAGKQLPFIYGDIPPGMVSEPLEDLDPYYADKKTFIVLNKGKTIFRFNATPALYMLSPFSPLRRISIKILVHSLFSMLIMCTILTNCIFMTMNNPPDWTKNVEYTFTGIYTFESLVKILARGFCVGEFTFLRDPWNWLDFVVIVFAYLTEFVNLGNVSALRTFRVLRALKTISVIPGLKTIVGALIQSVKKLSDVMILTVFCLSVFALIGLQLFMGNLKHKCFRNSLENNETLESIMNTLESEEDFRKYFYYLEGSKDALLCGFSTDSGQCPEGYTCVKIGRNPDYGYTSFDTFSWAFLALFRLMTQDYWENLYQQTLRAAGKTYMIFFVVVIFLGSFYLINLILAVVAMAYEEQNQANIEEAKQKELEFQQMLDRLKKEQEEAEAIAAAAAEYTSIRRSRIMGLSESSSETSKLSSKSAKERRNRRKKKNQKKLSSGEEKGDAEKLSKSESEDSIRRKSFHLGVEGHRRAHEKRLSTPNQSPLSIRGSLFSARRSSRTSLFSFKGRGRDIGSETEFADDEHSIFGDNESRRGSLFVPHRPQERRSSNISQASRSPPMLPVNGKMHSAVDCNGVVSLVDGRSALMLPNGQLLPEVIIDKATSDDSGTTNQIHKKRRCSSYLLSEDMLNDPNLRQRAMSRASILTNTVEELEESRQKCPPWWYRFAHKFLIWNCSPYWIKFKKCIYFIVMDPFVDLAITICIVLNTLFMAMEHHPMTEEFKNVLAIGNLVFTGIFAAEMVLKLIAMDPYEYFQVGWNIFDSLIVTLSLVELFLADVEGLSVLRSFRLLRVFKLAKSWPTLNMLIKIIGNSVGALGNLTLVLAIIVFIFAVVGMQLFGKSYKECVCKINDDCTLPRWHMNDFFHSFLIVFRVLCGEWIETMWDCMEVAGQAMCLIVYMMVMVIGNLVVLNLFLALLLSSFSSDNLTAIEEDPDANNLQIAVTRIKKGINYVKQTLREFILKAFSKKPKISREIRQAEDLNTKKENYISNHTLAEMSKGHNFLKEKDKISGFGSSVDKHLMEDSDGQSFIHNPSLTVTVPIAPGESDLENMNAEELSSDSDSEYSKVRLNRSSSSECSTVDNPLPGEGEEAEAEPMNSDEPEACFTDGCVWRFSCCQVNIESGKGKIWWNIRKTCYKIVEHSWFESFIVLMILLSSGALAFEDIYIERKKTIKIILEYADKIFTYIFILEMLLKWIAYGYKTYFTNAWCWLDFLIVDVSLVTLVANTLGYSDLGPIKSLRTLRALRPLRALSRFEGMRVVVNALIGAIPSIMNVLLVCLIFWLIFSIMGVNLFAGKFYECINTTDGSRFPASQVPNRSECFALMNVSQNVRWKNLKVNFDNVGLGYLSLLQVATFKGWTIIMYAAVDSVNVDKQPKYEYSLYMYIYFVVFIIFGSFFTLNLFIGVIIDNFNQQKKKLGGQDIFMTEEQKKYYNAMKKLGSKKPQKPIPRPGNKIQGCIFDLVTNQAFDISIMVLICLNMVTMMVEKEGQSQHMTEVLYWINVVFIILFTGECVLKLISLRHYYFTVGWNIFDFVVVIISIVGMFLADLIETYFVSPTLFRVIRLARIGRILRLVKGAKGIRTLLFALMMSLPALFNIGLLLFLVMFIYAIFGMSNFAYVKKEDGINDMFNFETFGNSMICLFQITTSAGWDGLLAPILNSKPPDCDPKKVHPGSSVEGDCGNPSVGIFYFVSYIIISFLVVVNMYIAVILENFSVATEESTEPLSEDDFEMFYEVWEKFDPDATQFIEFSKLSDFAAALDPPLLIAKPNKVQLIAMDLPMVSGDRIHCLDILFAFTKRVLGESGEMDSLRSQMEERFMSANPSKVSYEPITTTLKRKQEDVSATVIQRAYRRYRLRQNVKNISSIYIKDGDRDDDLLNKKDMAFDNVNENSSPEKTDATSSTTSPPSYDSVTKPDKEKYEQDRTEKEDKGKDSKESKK
row,Structure (SMILES),IC50
1,"Cc1cc(C(=O)NC(C)c2cc(C)c(OCC(F)F)c(Cl)c2)cc(NC(=O)C(C)C)n1 (single isomer, unassigned) [Example 1212, N-(1-(3-chloro-4-(2,2-difluoroethoxy)-5-methylphenyl)ethyl)-2-isobutyramido-6-methylisonicotinamide]",< 1000 nM
2,"CC(=O)Nc1cc(C(=O)NCc2cccc(OCC(F)(F)F)n2)ccn1 [Example 22, 2-acetamido-N-((6-(2,2,2-trifluoroethoxy)pyridin-2-yl)methyl)isonicotinamide]",< 1000 nM
3,"CC(=O)Nc1cc(C(=O)NCc2cccc(OC(F)(F)F)c2)ccn1 [Example 24, 2-acetamido-N-(3-(trifluoromethoxy)benzyl)isonicotinamide]",< 1000 nM
4,"O=C(NCc1cccc(OCC(F)(F)F)n1)c1cccc2[nH]c(=O)[nH]c12 [Example 57, 2-oxo-N-((6-(2,2,2-trifluoroethoxy)pyridin-2-yl)methyl)-2,3-dihydro-1H-benzo[d]imidazole-4-carboxamide]",< 1000 nM
5,"CCC(=O)Nc1cc(C(=O)NCc2ccnc(OCC(F)(F)F)c2)cc(C)n1 [Example 137, 2-methyl-6-propionamido-N-((2-(2,2,2-trifluoroethoxy)pyridin-4-yl)methyl)isonicotinamide]",< 1000 nM
6,"CCC(=O)Nc1cc(C(=O)NCc2ccc(OCC(F)(F)F)nc2C)cc(C)n1 [Example 168, 2-methyl-N-((2-methyl-6-(2,2,2-trifluoroethoxy)pyridin-3-yl)methyl)-6-propionamidoisonicotinamide]",< 1000 nM
7,"Cc1cc(OCC(F)(F)F)ncc1CNC(=O)c1ccnc(NC(=O)C(C)C)c1 [Example 178, 2-isobutyramido-N-((4-methyl-6-(2,2,2-trifluoroethoxy)pyridin-3-yl)methyl)isonicotinamide]",< 1000 nM
8,"CCC(=O)Nc1cc(C(=O)NCc2cnc(OCC(F)(F)F)cc2C)cc(C)n1 [Example 179, 2-methyl-N-((4-methyl-6-(2,2,2-trifluoroethoxy)pyridin-3-yl)methyl)-6-propionamidoisonicotinamide]",< 1000 nM
9,"COc1nc(OCC(F)(F)F)ccc1CNC(=O)c1cc(C)nc(NC(=O)C2CC2)n1 [Example 181, 2-(cyclopropanecarboxamido)-N-((2-methoxy-6-(2,2,2-trifluoroethoxy)pyridin-3-yl)methyl)-6-methylpyrimidine-4-carboxamide]",< 1000 nM
10,"CC(=O)Nc1cc(C(=O)NCc2ccc(OCC(F)(F)F)nc2)cc(C)n1 [Example 237, 2-acetamido-6-methyl-N-((6-(2,2,2-trifluoroethoxy)pyridin-3-yl)methyl)isonicotinamide]",< 1000 nM
11,"CC(=O)Nc1cc(C(=O)NCc2cnc(OCC(F)(F)F)cc2C)cc(C)n1 [Example 243, 2-acetamido-6-methyl-N-((4-methyl-6-(2,2,2-trifluoroethoxy)pyridin-3-yl)methyl)isonicotinamide]",< 1000 nM
12,"CCOc1cc(CNC(=O)c2cc(C)nc(NC(C)=O)c2)cnc1OCC(F)(F)F [Example 264, 2-acetamido-N-((5-ethoxy-6-(2,2,2-trifluoroethoxy)pyridin-3-yl)methyl)-6-methylisonicotinamide]",< 1000 nM
13,CCC(=O)Nc1cc(C(=O)NCc2cnc(OCC(F)(F)F)c(OC)c2)cc(C)n1 [Example 270],< 1000 nM
14,"COc1cc(CNC(=O)c2cc(C)nc(NC(C)=O)c2)cnc1OCC(F)(F)F [Example 272, 2-acetamido-N-((5-methoxy-6-(2,2,2-trifluoroethoxy)pyridin-3-yl)methyl)-6-methylisonicotinamide]",< 1000 nM
15,"CC(=O)Nc1cc(C(=O)NCc2ccc(OCC(F)(F)F)nc2N2CCOCC2)ccn1 [Example 281, 2-acetamido-N-((2-morpholino-6-(2,2,2-trifluoroethoxy)pyridin-3-yl)methyl)isonicotinamide]",< 1000 nM
16,"CC(C)C(=O)Nc1cc(C(=O)NCc2ccc(OCC(F)(F)F)nc2N2CCOCC2)ccn1 [Example 282, 2-isobutyramido-N-((2-morpholino-6-(2,2,2-trifluoroethoxy)pyridin-3-yl)methyl)isonicotinamide]",< 1000 nM
17,"CC(=O)Nc1cc(C(=O)NCc2ccc(OCC(F)(F)F)nc2N2CCOCC2)cc(C)n1 [Example 283, 2-acetamido-6-methyl-N-((2-morpholino-6-(2,2,2-trifluoroethoxy)pyridin-3-yl)methyl)isonicotinamide]",< 1000 nM
18,"CCC(=O)Nc1cc(C(=O)NCc2ccc(OCC(F)(F)F)nc2N2CCOCC2)cc(C)n1 [Example 284, 2-methyl-N-((2-morpholino-6-(2,2,2-trifluoroethoxy)pyridin-3-yl)methyl)-6-propionamidoisonicotinamide]",< 1000 nM
19,"COc1nc(OCC(F)(F)F)ccc1CN(C)C(=O)c1cc(C)nc(NC(C)=O)c1 [Example 290, 2-acetamido-N-((2-methoxy-6-(2,2,2-trifluoroethoxy)pyridin-3-yl)methyl)-N,6-dimethylisonicotinamide]",< 1000 nM

row,Structure (SMILES),IC50
1,"CCC(=O)Nc1cc(C(=O)N(C)Cc2ccc(OCC(F)(F)F)nc2OC)cc(C)n1 [Example 291, N-((2-methoxy-6-(2,2,2-trifluoroethoxy)pyridin-3-yl)methyl)-N,2-dimethyl-6-propionamidoisonicotinamide]",< 1000 nM
2,"CC(=O)Nc1cc(C(=O)NCc2ccc(OCC(F)(F)F)nc2N2CCCCC2)ccn1 [Example 302, 2-acetamido-N-((2-(piperidin-1-yl)-6-(2,2,2-trifluoroethoxy)pyridin-3-yl)methyl)isonicotinamide]",< 1000 nM
3,"CCC(=O)Nc1cc(C(=O)NCc2ccc(OCC(F)(F)F)nc2N2CCCCC2)ccn1 [Example 303, N-((2-(piperidin-1-yl)-6-(2,2,2-trifluoroethoxy)pyridin-3-yl)methyl)-2-propionamidoisonicotinamide]",< 1000 nM
4,"O=C(NCc1ccc(OCC(F)(F)F)nc1N1CCCCC1)c1ccnc(NC(=O)C2CC2)c1 [Example 304, 2-(cyclopropanecarboxamido)-N-((2-(piperidin-1-yl)-6-(2,2,2-trifluoroethoxy)pyridin-3-yl)methyl)isonicotinamide]",< 1000 nM
5,"CC(C)C(=O)Nc1cc(C(=O)NCc2ccc(OCC(F)(F)F)nc2N2CCCCC2)ccn1 [Example 305, 2-isobutyramido-N-((2-(piperidin-1-yl)-6-(2,2,2-trifluoroethoxy)pyridin-3-yl)methyl)isonicotinamide]",< 1000 nM
6,"CCC(=O)Nc1cc(C(=O)NCc2ccc(OCC(F)(F)F)nc2N2CCCCC2)cc(C)n1 [Example 306, 2-methyl-N-((2-(piperidin-1-yl)-6-(2,2,2-trifluoroethoxy)pyridin-3-yl)methyl)-6-propionamidoisonicotinamide]",< 1000 nM
7,"CC(=O)Nc1cc(C(=O)NCc2ccc(OCC(F)(F)F)nc2N2CCCCC2)cc(C)n1 [Example 307, 2-acetamido-6-methyl-N-((2-(piperidin-1-yl)-6-(2,2,2-trifluoroethoxy)pyridin-3-yl)methyl)isonicotinamide]",< 1000 nM
8,"CCCC(=O)Nc1cc(C(=O)NCc2ccc(OCC(F)(F)F)nc2N2CCCCC2)ccn1 [Example 308, 2-butyramido-N-((2-(piperidin-1-yl)-6-(2,2,2-trifluoroethoxy)pyridin-3-yl)methyl)isonicotinamide]",< 1000 nM
9,"CC(=O)Nc1cc(C(=O)NCc2cc(F)c(OCC(F)(F)F)nc2C)cc(C)n1 [Example 312, 2-acetamido-N-((5-fluoro-2-methyl-6-(2,2,2-trifluoroethoxy)pyridin-3-yl)methyl)-6-methylisonicotinamide]",< 1000 nM
10,"CCC(=O)Nc1cc(C(=O)NCc2cc(F)c(OCC(F)(F)F)nc2C)cc(C)n1 [Example 313, N-((5-fluoro-2-methyl-6-(2,2,2-trifluoroethoxy)pyridin-3-yl)methyl)-2-methyl-6-propionamidoisonicotinamide]",< 1000 nM
11,"Cc1nc(OCC(F)(F)F)c(F)cc1CNC(=O)c1ccnc(NC(=O)C(C)C)c1 [Example 314, N-((5-fluoro-2-methyl-6-(2,2,2-trifluoroethoxy)pyridin-3-yl)methyl)-2-isobutyramidoisonicotinamide]",< 1000 nM
12,"CCC(=O)Nc1cc(C(=O)NCc2cc(F)c(OCC(F)(F)F)nc2OC)cc(C)n1 [Example 328, N-((5-fluoro-2-methoxy-6-(2,2,2-trifluoroethoxy)pyridin-3-yl)methyl)-2-methyl-6-propionamidoisonicotinamide]",< 1000 nM
13,"CCOc1nc(OCC(F)(F)F)ccc1CNC(=O)c1ccnc(NC(C)=O)c1 [Example 332, 2-acetamido-N-((2-ethoxy-6-(2,2,2-trifluoroethoxy)pyridin-3-yl)methyl)isonicotinamide]",< 1000 nM
14,"CCOc1nc(OCC(F)(F)F)ccc1CNC(=O)c1ccnc(NC(=O)CC)c1 [Example 333, N-((2-ethoxy-6-(2,2,2-trifluoroethoxy)pyridin-3-yl)methyl)-2-propionamidoisonicotinamide]",< 1000 nM
15,"CCOc1nc(OCC(F)(F)F)ccc1CNC(=O)c1cc(C)nc(NC(=O)CC)c1 [Example 334, N-((2-ethoxy-6-(2,2,2-trifluoroethoxy)pyridin-3-yl)methyl)-2-methyl-6-propionamidoisonicotinamide]",< 1000 nM
16,"CCOc1nc(OCC(F)(F)F)ccc1CNC(=O)c1ccnc(NC(=O)C(C)C)c1 [Example 335, N-((2-ethoxy-6-(2,2,2-trifluoroethoxy)pyridin-3-yl)methyl)-2-isobutyramidoisonicotinamide]",< 1000 nM
17,"CCOc1nc(OCC(F)(F)F)ccc1CNC(=O)c1cc(C)nc(NC(C)=O)c1 [Example 336, 2-acetamido-N-((2-ethoxy-6-(2,2,2-trifluoroethoxy)pyridin-3-yl)methyl)-6-methylisonicotinamide]",< 1000 nM
18,"CCCC(=O)Nc1cc(C(=O)NCc2ccc(OCC(F)(F)F)nc2OCC)ccn1 [Example 337, 2-butyramido-N-((2-ethoxy-6-(2,2,2-trifluoroethoxy)pyridin-3-yl)methyl)isonicotinamide]",< 1000 nM
